Results: patent US9587005B2 (priority 2010, dated 2017)
Like-named read-outs stand apart in the source and are kept apart here. One block for each compound: values may come before it. *1 amine or outer side, *2 acyl side, *3 side chain or, on linkers, in order; H or OH if unused. Where a SMILES comes first, the peptide text is derived from it. Side-chain parts run from the residue outwards. [ ]: non-standard residue; d: D form. The star is where a group is joined. γGlu = O=C(O)[C@H](CCC(=O)[*:2])N[*:1]; Palmitoyl = CCCCCCCCCCCCCCCC(=O)*; Aib = CC(C)(N)C(=O)O

Key:
GIP receptor = molecular target: T1, GIP receptor (Homo sapiens, UniProt P48546); assay: cAMP induction, firefly luciferase reporter assay in HEK293 cells co-transfected with GIP receptor; type: cell-based
T1 sequence (P48546 22-466): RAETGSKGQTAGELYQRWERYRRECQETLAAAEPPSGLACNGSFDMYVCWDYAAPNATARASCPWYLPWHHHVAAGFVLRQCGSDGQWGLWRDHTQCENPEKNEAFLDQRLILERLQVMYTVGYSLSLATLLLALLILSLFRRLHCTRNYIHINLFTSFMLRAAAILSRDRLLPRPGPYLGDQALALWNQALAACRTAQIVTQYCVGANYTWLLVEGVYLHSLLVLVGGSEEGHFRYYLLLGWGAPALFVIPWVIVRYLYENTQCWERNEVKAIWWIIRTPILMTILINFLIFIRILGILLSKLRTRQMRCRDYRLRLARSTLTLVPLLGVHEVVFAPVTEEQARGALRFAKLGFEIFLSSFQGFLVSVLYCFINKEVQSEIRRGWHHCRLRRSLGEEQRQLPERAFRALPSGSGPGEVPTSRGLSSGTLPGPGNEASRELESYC

GLP-1 receptor = molecular target: T2, GLP-1 receptor (Homo sapiens, UniProt P43220); assay: cAMP induction, firefly luciferase reporter assay in HEK293 cells co-transfected with GLP-1 receptor; type: cell-based
T2 construct: expressed in transfected cells; host or cells: HEK293
T2 sequence (P43220 24-463): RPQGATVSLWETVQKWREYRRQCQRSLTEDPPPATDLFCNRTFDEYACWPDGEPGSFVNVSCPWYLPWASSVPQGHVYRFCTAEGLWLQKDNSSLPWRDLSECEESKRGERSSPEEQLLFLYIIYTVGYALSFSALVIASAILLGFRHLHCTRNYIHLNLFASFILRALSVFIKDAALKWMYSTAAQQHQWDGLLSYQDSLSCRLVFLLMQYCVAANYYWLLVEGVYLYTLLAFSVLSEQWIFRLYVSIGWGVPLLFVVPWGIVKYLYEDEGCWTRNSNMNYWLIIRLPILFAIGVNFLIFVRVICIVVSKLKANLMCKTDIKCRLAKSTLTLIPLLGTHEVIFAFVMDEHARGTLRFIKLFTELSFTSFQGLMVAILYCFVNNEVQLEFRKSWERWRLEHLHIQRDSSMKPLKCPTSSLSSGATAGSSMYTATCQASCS
From the text: This example describes an exemplary method of testing the biological activity of the peptides of the present disclosures, which method involves assaying cAMP synthesis.

[1] = EC50 (nM) at GLP-1 Receptor, Table 6, Example 12

Compound: CCCCCCCCCCCCCCCC(=O)N[C@@H](CCC(=O)NCCCC[C@H](NC(=O)[C@H](CC(=O)O)NC(=O)[C@H](CO)NC(=O)[C@@H](NC(=O)[C@H](Cc1ccccc1)NC(=O)[C@@H](NC(=O)CNC(=O)[C@H](CCC(N)=O)NC(=O)C(C)(C)NC(=O)[C@@H](N)Cc1c[nH]cn1)[C@@H](C)O)[C@@H](C)O)C(=O)N[C@@H](CO)C(=O)N[C@@H](CCCCN)C(=O)N[C@@H](Cc1ccc(O)cc1)C(=O)N[C@@H](CC(C)C)C(=O)N[C@@H](CC(=O)O)C(=O)N[C@@H](CCC(=O)O)C(=O)N[C@@H](CCCNC(=N)N)C(=O)N[C@@H](CCCNC(=N)N)C(=O)N[C@@H](C)C(=O)NC(C)(C)C(=O)N[C@@H](CCC(=O)O)C(=O)N[C@@H](Cc1ccccc1)C(=O)N[C@H](C(=O)N[C@@H](CCC(N)=O)C(=O)N[C@@H](Cc1c[nH]c2ccccc12)C(=O)N[C@@H](CC(C)C)C(=O)N[C@@H](CC(C)C)C(=O)N[C@@H](CC(=O)O)C(=O)NCC(=O)NCC(=O)N1CCC[C@H]1C(=O)N[C@@H](CO)C(=O)N[C@@H](CO)C(=O)NCC(=O)N[C@@H](C)C(=O)N1CCC[C@H]1C(=O)N1CCC[C@H]1C(=O)N1CCC[C@H]1C(=O)N[C@@H](CO)C(N)=O)C(C)C)C(=O)O [SEQ ID NO: 37] (H-H[Aib]QGTFTSDK([γGlu-Palmitoyl])SKYLDERRA[Aib]EFVQWLLDGGPSSGAPPPS-NH2; N-terminus assumed)
EC50 (GIP receptor; GIP (0.01), Table 8, Example 14, activity at the GIP receptor): 0.003 nM

Compound: CCCCCCCCCCCCCCCC(=O)NCCCC[C@H](NC(=O)[C@H](CO)NC(=O)[C@@H]1CCCN1C(=O)[C@@H]1CCCN1C(=O)[C@@H]1CCCN1C(=O)[C@H](C)NC(=O)CNC(=O)[C@H](CO)NC(=O)[C@H](CO)NC(=O)[C@@H]1CCCN1C(=O)CNC(=O)CNC(=O)[C@H](C)NC(=O)[C@H](CC(C)C)NC(=O)[C@H](CC(C)C)NC(=O)[C@H](Cc1c[nH]c2ccccc12)NC(=O)[C@H](CC(N)=O)NC(=O)[C@@H](NC(=O)[C@H](Cc1ccccc1)NC(=O)[C@H](CCC(=O)O)NC(=O)C(C)(C)NC(=O)[C@H](C)NC(=O)[C@H](C)NC(=O)[C@H](CCC(N)=O)NC(=O)[C@H](CCCCN)NC(=O)[C@H](CC(=O)O)NC(=O)[C@H](CC(C)C)NC(=O)[C@H](Cc1ccc(O)cc1)NC(=O)[C@@H](NC(=O)[C@H](CO)NC(=O)[C@H](Cc1ccc(O)cc1)NC(=O)[C@H](CC(=O)O)NC(=O)[C@H](CO)NC(=O)[C@@H](NC(=O)[C@H](Cc1ccccc1)NC(=O)[C@@H](NC(=O)CNC(=O)[C@H](CCC(=O)O)NC(=O)C(C)(C)NC(=O)[C@@H](N)Cc1ccc(O)cc1)[C@@H](C)O)[C@@H](C)O)[C@@H](C)CC)C(C)C)C(=O)NCC(N)=O [SEQ ID NO: 139]
EC50 (GLP-1 receptor; EC50 (nM) at GLP-1 Receptor, Table 9, Example 15): 0.005 nM
EC50 (GIP receptor; EC50 (nM) at GIP Receptor, Table 9, Example 15): 0.001 nM

EC50 (GLP-1 receptor; GLP-1 EC50 (nM), Table 17, Example 25): 0.222 nM
Compound: CC[C@H](C)[C@H](NC(=O)[C@H](CO)NC(=O)[C@H](Cc1ccc(O)cc1)NC(=O)[C@H](CC(=O)O)NC(=O)[C@H](CO)NC(=O)[C@@H](NC(=O)[C@H](Cc1ccccc1)NC(=O)[C@@H](NC(=O)CNC(=O)[C@H](CCC(N)=O)NC(=O)C(C)(C)NC(=O)[C@@H](N)Cc1c[nH]cn1)[C@@H](C)O)[C@@H](C)O)C(=O)N[C@@H](Cc1ccc(O)cc1)C(=O)N[C@@H](CC(C)C)C(=O)N[C@@H](CC(=O)O)C(=O)N[C@@H](CCC(=O)O)C(=O)N[C@@H](CCCCN)C(=O)N[C@@H](CCCNC(=N)N)C(=O)N[C@@H](C)C(=O)N[C@@H](CCCCN)C(=O)N[C@@H](CCC(=O)O)C(=O)N[C@@H](Cc1ccccc1)C(=O)N[C@H](C(=O)N[C@@H](CS)C(=O)N[C@@H](Cc1c[nH]c2ccccc12)C(=O)N[C@@H](CC(C)C)C(=O)N[C@@H](CC(C)C)C(=O)N[C@@H](C)C(=O)NCC(=O)NCC(=O)N1CCC[C@H]1C(=O)N[C@@H](CO)C(=O)N[C@@H](CO)C(=O)NCC(=O)N[C@@H](C)C(=O)N1CCC[C@H]1C(=O)N1CCC[C@H]1C(=O)N1CCC[C@H]1C(=O)N[C@@H](CO)C(=O)N[C@@H](CCCCN)C(N)=O)C(C)C [SEQ ID NO: 230] (H-H[Aib]QGTFTSDYSIYLDEKRAKEFVCWLLAGGPSSGAPPPSK-NH2; N-terminus assumed)

Compound: CCCCCCCCCCCCCCCC(=O)N[C@@H](CCC(=O)NCCCC[C@H](NC(=O)[C@H](CC(=O)O)NC(=O)[C@H](CO)NC(=O)[C@@H](NC(=O)[C@H](Cc1ccccc1)NC(=O)[C@@H](NC(=O)CNC(=O)[C@H](CCC(=O)O)NC(=O)C(C)(C)NC(=O)[C@@H](N)Cc1c[nH]cn1)[C@@H](C)O)[C@@H](C)O)C(=O)N[C@@H](CO)C(=O)N[C@@H](CCCCN)C(=O)N[C@@H](Cc1ccc(O)cc1)C(=O)N[C@@H](CC(C)C)C(=O)N[C@@H](CC(=O)O)C(=O)N[C@@H](CCC(=O)O)C(=O)N[C@@H](CCCNC(=N)N)C(=O)N[C@@H](CCCNC(=N)N)C(=O)N[C@@H](C)C(=O)NC(C)(C)C(=O)N[C@@H](CCC(=O)O)C(=O)N[C@@H](Cc1ccccc1)C(=O)N[C@H](C(=O)N[C@@H](CCC(N)=O)C(=O)N[C@@H](Cc1c[nH]c2ccccc12)C(=O)N[C@@H](CC(C)C)C(=O)N[C@@H](CC(C)C)C(=O)N[C@@H](CC(=O)O)C(=O)NCC(=O)NCC(=O)N1CCC[C@H]1C(=O)N[C@@H](CO)C(=O)N[C@@H](CO)C(=O)NCC(=O)N[C@@H](C)C(=O)N1CCC[C@H]1C(=O)N1CCC[C@H]1C(=O)N1CCC[C@H]1C(=O)N[C@@H](CO)C(N)=O)C(C)C)C(=O)O [compound 38] (H-H[Aib]EGTFTSDK([γGlu-Palmitoyl])SKYLDERRA[Aib]EFVQWLLDGGPSSGAPPPS-NH2; N-terminus assumed)
EC50 (GLP-1 receptor; EC50 (nM) at GLP-1 Receptor, Table 4, Example 9, composite of multiple different activity assays): 0.008 nM

Compound: CC[C@H](C)[C@H](NC(=O)[C@H](CO)NC(=O)[C@H](Cc1ccc(O)cc1)NC(=O)[C@H](CC(=O)O)NC(=O)[C@H](CO)NC(=O)[C@@H](NC(=O)[C@H](Cc1ccccc1)NC(=O)[C@@H](NC(=O)CNC(=O)[C@H](CCC(N)=O)NC(=O)[C@@H](CO)NC(=O)[C@@H](N)Cc1ccc(O)cc1)[C@@H](C)O)[C@@H](C)O)C(=O)N[C@@H](Cc1ccc(O)cc1)C(=O)N[C@@H](CC(C)C)C(=O)N[C@@H](CC(=O)O)C(=O)N[C@@H](CCCCN)C(=O)N[C@@H](CCC(N)=O)C(=O)N[C@@H](C)C(=O)N[C@@H](C)C(=O)NC(C)(C)C(=O)N[C@@H](CCC(=O)O)C(=O)N[C@@H](Cc1ccccc1)C(=O)N[C@H](C(=O)N[C@@H](CC(N)=O)C(=O)N[C@@H](Cc1c[nH]c2ccccc12)C(=O)N[C@@H](CC(C)C)C(=O)N[C@@H](CC(C)C)C(=O)N[C@@H](C)C(=O)NCC(=O)NCC(=O)N1CCC[C@H]1C(=O)N[C@@H](CO)C(=O)N[C@@H](CO)C(=O)NCC(=O)N[C@@H](C)C(=O)N1CCC[C@H]1C(=O)N1CCC[C@H]1C(=O)N1CCC[C@H]1C(=O)N[C@@H](CO)C(=O)N[C@@H](CS)C(N)=O)C(C)C [compound 50]
EC50 (GLP-1 receptor; [1]): 0.108 nM

Compound: CCCCCCCCCCCCCCCC(=O)N[C@@H](CCC(=O)NCCCC[C@H](NC(=O)[C@H](CC(=O)O)NC(=O)[C@H](CO)NC(=O)[C@@H](NC(=O)[C@H](Cc1ccccc1)NC(=O)[C@@H](NC(=O)CNC(=O)[C@H](CCC(=O)O)NC(=O)C(C)(C)NC(=O)[C@@H](N)Cc1c[nH]cn1)[C@@H](C)O)[C@@H](C)O)C(=O)N[C@@H](CO)C(=O)N[C@@H](CCCCN)C(=O)N[C@@H](Cc1ccc(O)cc1)C(=O)N[C@@H](CC(C)C)C(=O)N[C@@H](CC(=O)O)C(=O)N[C@@H](CCC(=O)O)C(=O)N[C@@H](CCCNC(=N)N)C(=O)N[C@@H](C)C(=O)N[C@@H](C)C(=O)N[C@@H](CCC(N)=O)C(=O)N[C@@H](CC(=O)O)C(=O)N[C@@H](Cc1ccccc1)C(=O)N[C@H](C(=O)N[C@@H](CCC(N)=O)C(=O)N[C@@H](Cc1c[nH]c2ccccc12)C(=O)N[C@@H](CC(C)C)C(=O)N[C@@H](CC(C)C)C(=O)N[C@@H](CC(=O)O)C(=O)NCC(=O)NCC(=O)N1CCC[C@H]1C(=O)N[C@@H](CO)C(=O)N[C@@H](CO)C(=O)NCC(=O)N[C@@H](C)C(=O)N1CCC[C@H]1C(=O)N1CCC[C@H]1C(=O)N1CCC[C@H]1C(=O)N[C@@H](CO)C(N)=O)C(C)C)C(=O)O [compound 80] (H-H[Aib]EGTFTSDK([γGlu-Palmitoyl])SKYLDERAAQDFVQWLLDGGPSSGAPPPS-NH2; N-terminus assumed)
EC50 (GLP-1 receptor; [1]): 0.008 nM

Compound: CC[C@H](C)[C@H](NC(=O)[C@H](CO)NC(=O)[C@H](Cc1ccc(O)cc1)NC(=O)[C@H](CC(=O)O)NC(=O)[C@H](CO)NC(=O)[C@@H](NC(=O)[C@H](Cc1ccccc1)NC(=O)[C@@H](NC(=O)CNC(=O)[C@H](CCC(N)=O)NC(=O)C(C)(C)NC(=O)[C@@H](N)Cc1ccc(O)cc1)[C@@H](C)O)[C@@H](C)O)C(=O)N[C@@H](Cc1ccc(O)cc1)C(=O)N[C@@H](CC(C)C)C(=O)N[C@@H](CC(=O)O)C(=O)N[C@@H](CCCCN)C(=O)N[C@@H](CCCCN)C(=O)N[C@@H](C)C(=O)N[C@@H](C)C(=O)NC(C)(C)C(=O)N[C@@H](CCC(=O)O)C(=O)N[C@@H](Cc1ccccc1)C(=O)N[C@H](C(=O)N[C@@H](CC(N)=O)C(=O)N[C@@H](Cc1c[nH]c2ccccc12)C(=O)N[C@@H](CC(C)C)C(=O)N[C@@H](CC(C)C)C(=O)N[C@@H](C)C(=O)NCC(=O)NCC(=O)N1CCC[C@H]1C(=O)N[C@@H](CO)C(=O)N[C@@H](CO)C(=O)NCC(=O)N[C@@H](C)C(=O)N1CCC[C@H]1C(=O)N1CCC[C@H]1C(=O)N1CCC[C@H]1C(=O)N[C@@H](CO)C(=O)N[C@@H](CCCCN)C(N)=O)C(C)C [mt-402]
EC50 (GLP-1 receptor; read-out: GLP-1 Receptor EC50, Table 1, Example 6): 0.007 nM
